Measurements as given in ChEMBL document CHEMBL1158150, “Inhibition of reverse transcriptase activity by benzophenanthridine alkaloids” (J Nat Prod, 1979).
Activity calls are given as the source filed them. No cut-off for these calls is given here.

Legend:
JLS-V9 [1] = test: Inhibition of reverse transcriptase from Rauscher murine leukemia virus propagated in JLS-V9 cells at 6 to 18 ug/ml; format: cell-based
[2] = test system: Avian myeloblastosis virus; test: Inhibition of AMV reverse transcriptase assessed as [3H]dGTP incorporation at 5 ug by toluene-based scintillation fluid counting in presence of poly rC.oligo dG template primer
JLS-V9 [3] = test: Inhibition of reverse transcriptase from Rauscher murine leukemia virus propagated in JLS-V9 cells at 5 to 10 ug/ml; format: cell-based
[4] = test system: Avian myeloblastosis virus; test: Inhibition of AMV reverse transcriptase at 6 to 12 ug/ml
[5] = test system: Avian myeloblastosis virus; test: Inhibition of AMV reverse transcriptase assessed as [3H]TTP incorporation at 5 ug by toluene-based scintillation fluid counting in presence of 2 to 20 ug poly rA.oligo dT template primer
[6] = test system: Avian myeloblastosis virus; test: Inhibition of AMV reverse transcriptase assessed as [3H]TTP incorporation by toluene-based scintillation fluid counting in presence of 0.10 umole MnCl2
[7] = test system: Avian myeloblastosis virus; test: Inhibition of AMV reverse transcriptase assessed as [3H]TTP incorporation by toluene-based scintillation fluid counting in presence of 0.50 umole MnCl2
[8] = test system: Avian myeloblastosis virus; test: Inhibition of AMV reverse transcriptase assessed as [3H]TMP incorporation by toluene-based scintillation fluid counting
[9] = test system: Avian myeloblastosis virus; test: Inhibition of AMV reverse transcriptase at 30 to 40 ug/ml
JLS-V9 [10] = test: Inhibition of reverse transcriptase from MuLV propagated in JLS-V9 cells at 30 to 40 ug/ml; format: cell-based; conditions: Rauscher murine leukemia virus
[11] = test system: Avian myeloblastosis virus; test: Inhibition of AMV reverse transcriptase assessed as [3H]TTP incorporation at 5 ug by toluene-based scintillation fluid counting in presence of template primer
[12] = test system: Avian myeloblastosis virus; test: Inhibition of AMV reverse transcriptase at 40 to 50 ug/ml
JLS-V9 [13] = test: Inhibition of reverse transcriptase from Rauscher murine leukemia virus propagated in JLS-V9 cells at 40 to 60 ug/ml; format: cell-based
[14] = test system: Avian myeloblastosis virus; test: Inhibition of AMV reverse transcriptase at 12 to 18 ug/ml
[15] = test system: Avian myeloblastosis virus; test: Inhibition of AMV reverse transcriptase assessed as [3H]TTP incorporation at 5 ug by toluene-based scintillation fluid counting in presence of poly dA.oligo dT template primer
[16] = test system: Avian myeloblastosis virus; test: Inhibition of AMV reverse transcriptase assessed as [3H]TTP incorporation at 5 ug by toluene-based scintillation fluid counting in presence of poly rA.oligo dT template primer
[17] = test system: Avian myeloblastosis virus; test: Inhibition of AMV reverse transcriptase assessed as [3H]TTP incorporation at 5 ug by toluene-based scintillation fluid counting in presence of activated DNA template primer
[18] = test system: Avian myeloblastosis virus; test: Inhibition of AMV reverse transcriptase assessed as [3H]TTP incorporation at 5 ug by toluene-based scintillation fluid counting in presence of 70S RNA template primer
[19] = test system: Avian myeloblastosis virus; test: Inhibition of AMV reverse transcriptase at 50 to 60 ug/ml
[20] = test system: Avian myeloblastosis virus; test: Inhibition of AMV reverse transcriptase at 45 to 50 ug/ml

Activity [5]	Activity [6]	Activity [7]	inhibition [2]	inhibition [15]	inhibition [16]	inhibition [17]	inhibition [18]	Structure (SMILES)	Activity (JLS-V9 [1])	Activity [2]	Activity (JLS-V9 [3])	Activity [8]	inhibition [9]	inhibition (JLS-V9 [10])	Activity [11]	Activity (JLS-V9 [13])	other results
inactive	Active	Active	–	–	–	–	–	COc1cc2c[n+](C)c3c4cc5c(cc4ccc3c2cc1OC)OCO5	–	Active	Active	Active	–	–	Active	Active	inhibition [12]: 50%
inactive	Active	Active	3%	97%	98%	96%	95%	COc1cc2ccc3c4cc(OC)c(OC)cc4c(OC)[n+](C)c3c2cc1OC	Active	–	Active	–	> 90%	> 90%	–	–	inhibition [14]: 50%
inactive	Active	Active	2%	94%	95%	93%	92%	COc1cc2ccc3c4cc5c(cc4c(OC)[n+](C)c3c2cc1OC)OCO5	–	–	Active	–	–	–	–	Active	inhibition [20]: 50%

Structure (SMILES)	Activity [5]	Activity [6]	Activity [7]	inhibition [2]	inhibition [15]	inhibition [16]	inhibition [17]	inhibition [18]	Activity (JLS-V9 [1])	Activity [2]	Activity (JLS-V9 [3])	Activity [8]	inhibition [9]	inhibition (JLS-V9 [10])	Activity [11]	Activity (JLS-V9 [13])	other results
COc1cc2c(ccc3c4cc(OC)c(OC)cc4c[n+](C)c23)cc1O	inactive	Active	Active	–	–	–	–	–	Active	Active	Active	Active	> 90%	> 90%	Active	–	inhibition [4]: 50%
COc1cc2c(cc1OC)C(OC)N(C)c1c-2ccc2cc3c(cc12)OCO3.O=C(O)Br (stereo not given)	inactive	Active	Active	2%	93%	94%	92%	91%	–	–	Active	–	–	–	–	Active	inhibition [19]: 50%
